*1 amine or outer side, *2 acyl side, *3 side chain or, on linkers, in order; H or OH if unused. Where a SMILES comes first, the peptide text is derived from it. [ ]: non-standard residue; d: D form. The star is where a group is joined. Sta = CC(C)C[C@H](N)[C@@H](O)CC(=O)O; X1 = CC(C)CC(N[*:1])C(O)CC(=O)[*:2]; Phg = N[CH](C(=O)O)c1ccccc1; Isovaleryl = CC(C)CC(=O)*; Boc = CC(C)(C)OC(=O)*
Molecular target: T1, Human brain β-Secretase (Homo sapiens, UniProt P56817)
T1 construct: Human brain β-Secretase from the concentrated HiQ pool prepared Jul; from tissue; host or cells: human brain
T1 sequence (P56817 46-501): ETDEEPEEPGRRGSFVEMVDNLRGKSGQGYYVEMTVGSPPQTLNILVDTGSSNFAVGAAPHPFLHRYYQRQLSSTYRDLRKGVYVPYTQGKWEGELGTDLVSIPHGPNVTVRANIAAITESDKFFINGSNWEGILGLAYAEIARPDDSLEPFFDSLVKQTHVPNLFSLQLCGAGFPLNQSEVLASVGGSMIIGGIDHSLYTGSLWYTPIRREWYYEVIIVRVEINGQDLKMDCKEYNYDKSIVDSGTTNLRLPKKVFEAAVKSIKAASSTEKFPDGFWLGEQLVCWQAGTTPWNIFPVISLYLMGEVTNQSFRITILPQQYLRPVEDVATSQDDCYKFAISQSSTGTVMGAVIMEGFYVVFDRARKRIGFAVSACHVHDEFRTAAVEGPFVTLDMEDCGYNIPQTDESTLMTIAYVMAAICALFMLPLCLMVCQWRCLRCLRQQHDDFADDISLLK
Assay: MBP-C125 enzyme inhibition assay (ELISA detection of β-secretase cleavage of MBP-C125 substrate)
Assay type: biochemical
Conditions: pH 4.5, 37° C., 90 minutes, highest concentration 200 μM, read-out: IC50 Group
Procedure: Enzyme Inhibition Assay Purpose/Rationale:
The MBP-C125 assay, determines relative inhibition of β-secretase cleavage of an MPB-C125 substrate by the compounds assayed. Human brain β-Secretase from the concentrated HiQ pool prepared Jul. 16, 1997 in 0.20% Triton is used in the assay. Inhibition data was obtained from an ELISA which uses an anti-MBP capture antibody (on precoated and blocked 96-well high binding plates) followed by incubation with diluted enzyme reaction supernatant, incubation with an anti-SW192 specific biotinylated reporter antibody and incubation with streptavidin/alkaline phosphatase. Detection was effected by a fluorescent substrate signal on cleavage by the phosphatase. The ELISA only detected cleavage following Leu 596 at the substrate's Swedish APP 751 mutation site.
Compounds were diluted in a 1:1 dilution series to a six-point concentration curve (two wells per concentration) which took up one 96-plate row per compound tested.
Each of the test compounds was weighed out into a vial and DMSO was added to make up a 10 mM solution. To obtain a final compound concentration of 200 μM at the high point of a 6-point dilution curve, 100 μL of the 10 mM solution was added to well C1 of a 96-well V-bottom plate. Fifty μL of DMSO was added to odd wells of row C across the plate and 1:1 serial dilutions were made. 10 μL of each dilution was added to each of two wells on row C of a corresponding V-bottom plate to which 190 μL of 52 mM NaOAc/7.9% DMSO, pH 4.5 were pre-added. The NaOAc diluted compound plate was spun down to pellet precipitant and 20 μL/well was transferred to a corresponding flat-bottom plate to which 30 μL of ice-cold enzyme-substrate mixture (2.5 μL MBP-C125 substrate, 0.03 μL enzyme and 24.5 ice cold 0.09% TX100 per 30 μl) was added. The compound concentration in the final enzyme reaction was thus 50 times less than the starting concentration. The final reaction mixture of 200 μM compound for the highest curve point was in 5% DMSO, 20 mM NaAc, 0.06% TX100, at pH 4.5. The enzyme reaction was started by warming the plates to 37° C. After 90 minutes at 37° C., 200 μL/well cold specimen diluent was added to stop the reaction and 20 μL/well was transferred to a corresponding α-MBP coated ELISA plate, containing 80 μL/well specimen diluent. This reaction was incubated overnight at 4° C. and the ELISA was developed the next day using a 2 hr. incubation with α-192SW followed by Streptavidin-AP conjugate and flourescent substrate. The signal was read on a fluorescent plate reader.

| IC50 [µM] | SMILES |
| --- | --- |
| 10 to 99 | CSCCC(NC(=O)C(NC(=O)OC(C)(C)C)C(C)C)C(=O)NC(CC(C)C)C(O)CC(=O)NC(C(=O)NC(C)c1ccc(C(=O)O)cc1)C(C)C (centres unmarked) [Example 31] |
| < 10 | CSCCC(NC(=O)C(NC(=O)OC(C)(C)C)C(C)C)C(=O)NC(CC(C)C)C(O)CC(=O)NC(C(=O)NC1CCC(C(=O)O)C(C(=O)O)C1)C(C)C (centres unmarked) [Example 32] |
| 10 to 99 | CSCCC(NC(=O)C(NC(=O)OC(C)(C)C)C(C)C)C(=O)NC(CC(C)C)C(O)CC(=O)NC(C(=O)NC(C(=O)O)c1ccccc1)C(C)C (centres unmarked) [Example 35] (Boc-VM[X1]V[Phg]-OH; configuration not given here) |
| < 10 | CSCCC(NC(=O)C(NC(=O)OC(C)(C)C)C(C)C)C(=O)NC(CC(C)C)C(O)CC(=O)NC(C(=O)NCCc1ccc(O)c([N+](=O)[O-])c1)C(C)C (centres unmarked) [Example 36] |
| < 10 | CC(=O)NC(C(=O)NC(C(=O)NC(Cc1ccccc1)C(O)CC(=O)NC(C(=O)NCc1ccc(C(=O)O)cc1)C(C)C)c1ccccc1)C(C)C (centres unmarked) [Example 37] |
| 10 to 99 | CC(C)CC(NC(=O)C(NC(=O)C(NC(=O)OCc1ccccc1)C(C)C)c1ccccc1)C(O)CC(=O)NC(C(=O)NCc1ccc(C(=O)O)cc1)C(C)C (centres unmarked) [Example 38] |
| 10 to 99 | CC(C)CC(NC(=O)C(NC(=O)C(NC(=O)OC(C)(C)C)C(C)C)c1ccccc1)C(O)CC(=O)NC(C(=O)NCc1ccc(C(=O)O)cc1)C(C)C (centres unmarked) [Example 39] |

Molecular target: β-secretase (Homo sapiens, UniProt P56817)
Sequence (P56817 46-501): as above
Assay: assays with β-secretase (pepstatin remark)
Assay type: biochemical
Conditions: not given

| inhibitory activity in assays with β-secretase | SMILES |
| --- | --- |
| no inhibitory activity | CC(C)CC(=O)N[C@H](C(=O)N[C@H](C(=O)N[C@@H](CC(C)C)[C@@H](O)CC(=O)N[C@@H](C)C(=O)N[C@@H](CC(C)C)[C@@H](O)CC(=O)O)C(C)C)C(C)C [pepstatin] (Isovaleryl-VV[Sta]A[Sta]-OH) |
